Square brackets hold non-standard residues; d marks the D form. Peptide text beside a SMILES is read from it.
Tested on: α-synA53T–YFP (HEK293T cells)
Test: Seeded intracellular aggregation in α-synA53T–YFP cells
Assay type: cell-based, human
Details: day 3; for aggregate-positive cells: transfected, then 30 nM small α-syn PFF seeds
Text: Fig. 5 SVD-1a inhibits seeded α-syn aggregation in cells. To validate the inhibitory effect of SVD-1a in cells, we used the α-synA53T–YFP cell system, which stably expresses human α-syn with the familial A53T mutation fused to YFP in HEK293T cells and enables fluorescence-based detection of aggregates that show up as highly fluorescent spots within the cells, clearly above background, intracellularly after seeding with small α-syn PFF seeds. In order to avoid interference of the peptide with the uptake of small α-syn PFF seeds, we performed a two-step transfection starting with a first transfection of the peptide and a second transfection with PFFs. […] To quantify the number of cells with aggregates in our images and to avoid experimental bias, we used a fully automated algorithm for image analysis. […] One asterisk denotes p values < 0.05 and three asterisks a p value < 0.001. Error bars indicate standard deviation. […] Treatment with increasing concentrations of SVD-1a, here imaged at 25 µM, led to a concentration-dependent reduction in the number of cells with aggregates (H-J). Panels B, E, and H show nuclei stained with Hoechst 33342. Panels C, F, and I show αSynA53T–YFP fluorescence. Panels D, G, and J show merged images. The scale bar in J represents 100 µm and applies to all panels. The viability of the cells was not reduced by transfection with seeds or in SVD-1a, as shown in Supplementary Fig. 15. Confirmation that highly fluorescent aggregates contain α-syn is shown in Supplementary Fig. 14 by co-immunostaining with syn-211 antibody, anti-α-syn (phospho S129) antibody and 5G4 antibody.
A construct encoding full-length A53T-mutated human α-syn fused with YFP at the C-terminus was synthesized and introduced into the pMK–RQ expression vector (GeneArt; Thermo Fisher Scientific, USA). The α-synA53T–YFP construct was subcloned into the pIRESpuro3 vector (Clontech; Takara Bio, JPN) using NheI (5′) and NotI (3′) restriction sites. HEK293T cells (American Type Culture Collection) were cultured in high-glucose Dulbecco’s modified Eagle’s medium (DMEM; Sigma-Aldrich, USA) supplemented with 10% fetal calf serum (Sigma-Aldrich, USA), and 50 units/ml penicillin as well as 50 μg/ml streptomycin (Sigma-Aldrich, USA). Cells were cultured in a humidified atmosphere of 5% CO2 at 37 °C. Cells plated in DMEM were transfected using Lipofectamine 2000 (Invitrogen; Thermo Fisher Scientific, USA). Stable cells were selected in DMEM containing 1 μg/ml puromycin (EMD Millipore, USA). Monoclonal lines were generated by fluorescence-activated cell sorting of a polyclonal cell population in 96-well plates using a MoFlo XDP cell sorter (Beckman Coulter, USA). Finally, the clonal cell line B5 was selected from among 24 clonal cell lines and is referred to as αSynA53T–YFP cells. Peptides were incubated with 1.5% Lipofectamine 2000 in OptiMEM for 2 h at room temperature. […] On day 3 the cells were imaged with an IN Cell Analyzer 6500HS System (Cytiva, USA) using the blue and green fluorescence channel, and analyzed using IN Carta Image Analysis Software (Cytiva, USA) after an algorithm was established to identify intracellular aggregates in living cells. For each condition, we used four wells and took 16 images per well, which were analyzed by a fully automated algorithm to avoid bias. […]

SMILES: CC[C@@H](C)[C@@H](NC(=O)[C@@H](Cc1c[nH]cn1)NC(=O)[C@@H](CCC(=O)O)NC(=O)[C@@H](CCC(N)=O)NC(=O)[C@@H](Cc1c[nH]c2ccccc12)NC(=O)[C@@H](Cc1ccc(O)cc1)NC(=O)[C@H](NC(=O)[C@@H](CCC(=O)O)NC(=O)[C@@H](Cc1c[nH]cn1)NC(=O)[C@H](NC(=O)[C@H]1CCCN1C(=O)[C@@H](CC(C)C)NC(=O)[C@H](N)CCCNC(=N)N)[C@H](C)O)[C@H](C)O)C(=O)N[C@H](Cc1c[nH]c2ccccc12)C(=O)N[C@H](Cc1c[nH]cn1)C(=O)N[C@H](C)C(=O)N[C@H](CCCNC(=N)N)C(=O)N[C@H](CCCNC(=N)N)C(=O)N[C@H](CCCNC(=N)N)C(=O)N[C@H](CCCNC(=N)N)C(=O)N[C@H](CCCNC(=N)N)C(N)=O [SVD-1a] (H-[dR][dL][dP][dT][dH][dE][dT][dY][dW][dQ][dE][dH][dI][dW][dH][dA][dR][dR][dR][dR][dR]-NH2)
- aggregate-positive cells (5 µM peptide): 64%
- aggregate-positive cells (25 µM peptide): 57%
- inhibition of intracellular seeded α-syn aggregation (peptide transfection, then 30 nM PFF seeds): inhibited α-syn aggregation in αSynA53T–YFP cells in a dose-dependent manner

Source: paper PMC12454639, “Direct disassembly of α-syn preformed fibrils into α-syn monomers by an all-D-peptide” (NPJ Parkinson's Disease, 2025)
